Values of other authors as cited in US6127388A, “Azetidine, pyrrolidine and piperidine derivatives as 5-HT1D receptor agonists” (Merck Sharp & Dohme Ltd., priority 1996, dated 2000).

Conditions: therapeutic doses

For `CNS(=O)(=O)Cc1ccc2[nH]cc(CCN(C)C)c2c1` [sumatriptan], the “adverse cardiovascular events in humans” value is given as “certain adverse cardiovascular events”.
